Experimental data reported in patent US20240382437A1, “TREATMENT OF ACUTE TISSUE INJURY” (OBVIA PHARMACEUTICALS LTD., priority 2021, published 2024).

What was measured:
[1] = tested on: BN allograft kidneys; assay: Kidney function (serum creatinine and serum BUN) 20 hr after transplant of the BN kidney into a LEW rat; type: in vivo; details: three IP PrC-210 injections
Source text: Rats either received no PrC-210 (“20 Hr”) or three IP PrC-210 injections in the 20 hr period following transplant (“20 Hr +PrC-210”), before recipient rat was euthanized and serum was collected. P values are indicated. To determine PrC-210 efficacy in suppressing inflammation-generated damage to a transplanted, allograft organ, we used an allograft rat kidney transplant model that largely eliminated the induction of the ischemia and reperfusion insults in transplant, and created only the third inflammation insult by allograft transplanting a kidney from a Brown strain (BN) rat into a recipient Lewis strain (LEW) rat (FIG. 1). PrC-210 was administered both pre-and post-implantation to determine its protective effect in suppressing any inflammation-associated damage to the transplanted BN kidney in the LEW rat. Brown Rat kidneys were flushed with UW solution containing PrC-210 and immediately transplanted into syngeneic Lewis Rat recipients. Ischemic time was virtually eliminated. Immediately following implant, and for 8 hr following kidney implant, recipient rats received systemic PrC-210 injections at doses that would enable continuous free radical-scavenging within the transplanted kidney. […] Serum creatinine and serum BUN were also measured to assess function in the BN allograft kidneys 20 hr after transplant (FIG. 4).

[2] = tested on: kidney; details: rodent kidney transplant study; cited from earlier work
[3] = tested on: kidney; details: rodent kidney transplant study; cited from earlier work; remark: listed apart in the source
[4] = in vivo; cited from earlier work
[5] = tested on: transplanted BN kidney; assay: Histology of transplanted BN kidneys 20 hr after allograft transplant into LEW rats; type: in vivo, rat; details: 20 hr post-transplant
Experimental: LT (left), RT (right), MTD (Maximum Tolerated Dose), IP (intraperitoneal).
(B,C,D) BN kidneys 20 hr following transplant into LEW rats. “20 hr” control kidneys (B,C) were flushed with room temperature UW Solution prior to transplant, and +PrC-210 kidneys (D) were flushed with room temperature UW Solution containing 30 mM PrC-210 prior to transplant, and recipient LEW rat also received three intraperitoneal systemic PrC-210 doses in the eight hours following transplant. Panel B red arrows highlight tubulitis pathology, and Panel C yellow arrows highlight peritubular capillaritis pathology.
Operator randomly collected sample images of renal tubules from each of the indicated kidney groups in panels A,B,C. Then, using an ImageJ macro, H/E images (e.g., FIG. 3 panels A-C) were analyzed, and above-threshold pink or blue pixels were selected and enumerated, and their ratio was then calculated and plotted to provide an estimate of kidney white blood cell infiltration.
(§1) To determine PrC-210 efficacy in suppressing inflammation-generated damage to a transplanted, allograft organ, we used an allograft rat kidney transplant model that largely eliminated the induction of the ischemia and reperfusion insults in transplant, and created only the third inflammation insult by allograft transplanting a kidney from a Brown strain (BN) rat into a recipient Lewis strain (LEW) rat (FIG. 1). PrC-210 was administered both pre-and post-implantation to determine its protective effect in suppressing any inflammation-associated damage to the transplanted BN kidney in the LEW rat. Brown Rat kidneys were flushed with UW solution containing PrC-210 and immediately transplanted into syngeneic Lewis Rat recipients. Ischemic time was virtually eliminated. Immediately following implant, and for 8 hr following kidney implant, recipient rats received systemic PrC-210 injections at doses that would enable continuous free radical-scavenging within the transplanted kidney. Transplanted kidneys and blood plasma were then harvested 20 hr following transplant to enable measurement of both PrC-210-conferred i) suppression of inflammatory by-products and ii) kidney protection.
The same blinded histology sections were examined for mononuclear white cell infiltration.

[6] = tested on: TIMP-1; assay: TIMP-1 ELISA of serum and kidney homogenate 20 hr after transplant; type: in vivo, rat; details: 20 hr post-transplant, kidney homogenates and sera, FIG. 6
Experimental: (§2) TIMP-1, TNF-alpha and MIP-3A/CCL20 levels were determined by ELISA analysis. P values are indicated.
as §1, with “Immediately following implant, and for 8 hr following kidney implant, recipient rats received systemic PrC-210 injections at doses that would enable continuous free radical-scavenging within the transplanted kidney. Transplanted kidneys and blood plasma were then harvested 20 hr following transplant to enable measurement of both PrC-210-conferred i) suppression of inflammatory by-products and ii) kidney protection.” left out
(§3) In screening experiments, kidney homogenate supernates from 0 hr controls and 20 hr no treatment kidneys were screened with the Proteome Profiler 29 cytokine array to detect altered, inflammation-associated, cytokine and chemokine expression levels 20 hr post-transplant. […] Individual ELISA plates were then used to quantify these changes in kidney homogenates and sera, now including rats treated with PrC-210 as well. […]

[7] = tested on: MIP-3a/CCL20; assay: MIP-3a/CCL20 ELISA 20 hr after transplant; type: in vivo, rat; details: 20 hr post-transplant, FIG. 6D
Experimental: as §2
as §1, with “Immediately following implant, and for 8 hr following kidney implant, recipient rats received systemic PrC-210 injections at doses that would enable continuous free radical-scavenging within the transplanted kidney. Transplanted kidneys and blood plasma were then harvested 20 hr following transplant to enable measurement of both PrC-210-conferred i) suppression of inflammatory by-products and ii) kidney protection.” left out
as §3

[8] = tested on: Caspase 1; assay: Caspase 1 in plasma of ICR mice after lethal radiation; type: in vivo; details: PrC-210 given before or after lethal radiation with 8.68 Gy, FIG. 8
Source text: Caspase 1 is a central activator of acute inflammation in neutrophilic cells, which recruits both T-cells and monocytes and activates apoptosis.

[9] = tested on: TNF-alpha; assay: TNF-alpha ELISA of serum and kidney homogenate 20 hr after transplant; type: in vivo, rat; details: 20 hr post-transplant, kidney homogenates and sera, FIG. 6
Experimental: as §2
as §1, with “Immediately following implant, and for 8 hr following kidney implant, recipient rats received systemic PrC-210 injections at doses that would enable continuous free radical-scavenging within the transplanted kidney. Transplanted kidneys and blood plasma were then harvested 20 hr following transplant to enable measurement of both PrC-210-conferred i) suppression of inflammatory by-products and ii) kidney protection.” left out
as §3

[10] = tested on: caspase 3,7; assay: Activated caspase 3,7 activity in post-transplant kidney supernatant, measured enzymatically; type: in vivo, rat; details: 20 hr after transplant; PrC-210 in UW Solution plus systemic doses; 60 min reaction; FIG. 5
Experimental: Kidney supernatant activated caspase 3,7 activity was measured enzymatically in a 60 min reaction.
as §1

[11] = tested on: Caspase 8; assay: Caspase 8 in brains of ICR mice after lethal radiation; type: in vivo
Source text: Caspase 8 inhibition (FIG. 9) in the brain after acute injury, such as radiation, is support for less TNF-α activation, and TRL—and FAS receptor upregulation in the brain. […] This supports that inflammation, such as activation of microglia is normalized after PrC-210.

## CNCC(CS)CNC [PrC-210, 3-(methylamino)-2-(methylaminomethyl) propane-1-thiol]
[1]; P=0.032, FIG. 4
  serum creatinine: significant reductions
[1]; P=0.046, FIG. 4
  serum BUN: significant reductions
[2]
  free-radical-induced kidney damage induced during reperfusion injury upon implant: to background levels
[3]
  free-radical-induced kidney damage induced during 30 hr cold storage: to background levels
[4]
  hypotension side effects: no measurable
  nausea/emesis side effects: no measurable
[5]; PrC-210 via perfusing UW Solution and intraperitoneal injections, FIG. 3
  integrity of the renal tubule brush border epithelium (histology): preserved integrity of the renal tubular brush border
[5]; compared with 0 hr control group, FIG. 3, D
  Inflammatory Infiltration Score: statistically the same as the 0 hr control group
[5]; kidney perfused with PrC-210-containing UW Solution (30 mM) plus three post-implant intraperitoneal doses, FIG. 2
  Banff scores for tubulitis and peritubular capillaritis: equal to Banff scores of the “0 Hr” control BN group
[5]; versus the untreated BN kidneys, P=0.011, FIG. 3
  mononuclear white cell infiltration (blue pixels): significantly suppressed
[6]
  TIMP-1 levels: decreased
[7]
  MIP-3a/CCL20 levels: increased significantly higher
[8]
  Caspase 1 in plasma: 6-day suppression
[9]
  TNF-alpha levels: decreased
[10]
  activated caspase activity in BN kidney homogenates: same activated caspase activity to that seen in “O hr” control kidneys
[11]; ICR mice brain, lethal radiation with 8.68 Gy
  duration of the effect on Caspase 8: at least six days
[11]; ICR mice, PrC-210 given before lethal radiation with 8.68 Gy, FIG. 9
  Caspase 8 in the brain: inhibition
